Data from patent US20230134760A1, “CAR AND NRF2 DUAL ACTIVATOR AGENTS FOR CYCLOPHOSPHAMIDE-BASED AND DOXORUBICIN-BASED TREATMENTS OF CANCER” (priority 2020, published 2023).

Key:
BT549 cells [1] = assay: Cell viability assay, DOX-induced toxicity in BT549 cells; assay type: cell-based; settings: BT549, DOX 2.5 μM
Description: Immortalized triple negative breast cancer cell lines MDA-MB-231 and BT549 were obtained from ATCC (Rockville, Md.). Additionally, the h9c2 cell line was purchased from ATCC (Rockville, Md.). […] Human iPSC-derived cardiomyocytes were maintained in Mtesr plus and supplemented according to protocol. These cells were treated for 2 hrs or an overnight as indicated. Following a 2 hr pretreatment, cells were co-treated with DOX at indicated concentrations for 6 or 22 hours. Following the overnight treatments, RNA or protein was isolated. HPH were seeded in collagen-coated 24 well plates and pretreated for 24 hrs. BT549 were seeded on inverted coverslips. After a 24 hr pretreatment, hepatocytes were co-administered as indicated and coverslips were inserted. The cell lines were used for less than 60 passages. H9c2 cells were seeded 0.8×10^5 in 24-well plates. […] A Cell Counting Kit-8 (Enzo) assay was carried out. Cell viability was described as a percent of vehicle control (0.1% DMSO).

BT549 cells [2] = assay: Oxidative stress imaging (DFDA) in BT549 cells; assay type: cell-based; settings: BT549, DL7076 5 μM + DOX
H9c2 cells [3] = assay: Multi-organ co-culture (BT549/HPH/H9c2), H9c2 viability; assay type: cell-based, rat; settings: DL7076 10 μM
Description: (§1) Additionally, HPH were cultured in collagen-coated 6-well plates and pre-treated as described in the previous co-culture system. BT549 and H9c2 cells were plated on similar modified coverslips 0.8×10^5 cells and allowed to attach for 24 hours during hepatocyte pre-treatment. […] Following pre-treatment, BT549 coverslips were inserted adjacent to H9c2 coverslips over the sandwich cultured HPH as depicted in FIG. 43a. […] Both BT549 and H9c2 cells were harvested at indicated time points and assess for viability, apoptosis, and DNA damage as detailed further. H9c2 cells were seeded 0.8×10^5 in 24-well plates. […] A Cell Counting Kit-8 (Enzo) assay was carried out. Cell viability was described as a percent of vehicle control (0.1% DMSO).

H9c2 cells [4] = assay: Oxidative stress imaging (DFDA) in H9c2 cells; assay type: cell-based, rat; settings: H9c2, DL7076 5 μM, 2-hour pretreatment and 6-hour cotreatment with DOX
Description: H9c2 rat cardiomyocytes seeded at 0.8×10^5 in 24-well plates. […] Cells were washed 3× with PBS. Subsequently, 0.5 mL of WEM containing 20 μM 2'-7'-dichlorofluorescein diacetate (DFDA) was added to each well. The cells were incubated at 37° C. and 5% CO2 for 30 min. The oxidation of DFDA to the fluorescent dichlorofluorescein was viewed using fluorescence microscopy (Nikon Eclipse Ti) with a FITC filter at […] and quantified using Brightspot detection for fluorescent detection of triplicate images and normalized to the vehicle control (0.1% DMSO). Cells on coverslips from co-culture experiments were fixed using 4% paraformaldehyde and permealized using Triton-X 100. A primary antibody for mouse anti-phospho-H2AX ([…]) was incubated overnight. Goat anti-mouse IgG Fluor Alexa 488 (1:200) was incubated for 2 hrs. Phosphorylation was calculated through fluorescence intensity all normalized to the vehicle control.

Nrf2 = Nrf2 luciferase reporter assay in HepG2 cells (ARE); assay type: cell-based; settings: HepG2, screening, FIG. 37b
Description: HepG2 cells were cultured in 24-well plates (1×10^5 cells/well) and transfected with either a hCAR1+A expression vector (30 ng/well), a CYP2B6-2.2k reporter (60 ng/well) reporter, and pRL-TK (10 ng/well) or a ARE expression vector using X-tremeGENE 9 DNA Transfection Reagent (Sigma-Aldrich). After an overnight transfection, cells were treated with a vehicle control (0.1% DMSO), RIF (10 μM), DL7076 (1 μM, 5 μM, and 10 μM) for 24 hours. Cell lysates were assayed for luciferase activity and normalized against the activity of the Renilla luciferase using a Dual-Luciferase Kit (Promega).

H9c2 cells [5] = assay: Phosphorylated H2AX imaging, H9c2 cells from multi-organ co-culture; assay type: cell-based, rat; settings: CPA/DOX + DL7076
Description: Additionally, HPH were cultured in collagen-coated 6-well plates and pre-treated as described in the previous co-culture system. BT549 and H9c2 cells were plated on similar modified coverslips 0.8×10^5 cells and allowed to attach for 24 hours during hepatocyte pre-treatment. […] Following pre-treatment, BT549 coverslips were inserted adjacent to H9c2 coverslips over the sandwich cultured HPH as depicted in FIG. 43a. […] Both BT549 and H9c2 cells were harvested at indicated time points and assess for viability, apoptosis, and DNA damage as detailed further. […] Cells were fixed using 4% paraformaldehyde in PBS for 15 minutes followed by permeabilization with 0.5% Triton-X 100 in PBS for an additional 15 minutes at room temperature. Prior to blocking with 5% Bovine Serum Albumin (BSA), 3 washes with PBS were done to remove excess Triton-X. Primary antibody to mouse anti-phospho-H2AX ([…], clone JBW301, Millipore, 1:500 dilution) was prepared in PBS with 3% BSA and 0.3% Triton-X 100 and incubated overnight. […] The coverslips were visualized at 10× magnification using fluorescence microscopy (Nikon Eclipse Ti) and the amount of phosphorylation was quantified as mean intensity using brightspot detection of quadruplet images of the whole well and normalized to the vehicle control (0.1% DMSO).

BT549 cells [6] = assay: Multi-organ co-culture (BT549/HPH/H9c2), BT549 viability; assay type: cell-based; settings: DL7076 10 μM
Description: as §1

SMILES: O=C(NCCN=C=S)c1c(-c2ccc3ccccc3c2)nc2sccn12 [DL7076, N-(2-Isothiocyanatoethyl)-6-(naphthalen-2-yl)imidazo[2,1-b]thiazole-5-carboxamide]
- reversal of DOX-induced toxicity (viability) (BT549 cells [1]): this efficient reversal was not shown
- ROS with cotreatment (BT549 cells [2]): significant ROS without reduction
- H9c2 viability during CPA/DOX treatment (H9c2 cells [3]): h9c2 cardiomyocyte viability can be protected during CPA/DOX treatment
- ROS (fluorescence intensity) with cotreatment (H9c2 cells [4]): significantly reduced ROS
- Nrf2 luciferase activity (potency and efficacy) (Nrf2): higher potency and efficacy
- H2AX phosphorylation (DNA damage) (H9c2 cells [5]): a measured decrease in histone H2A phosphorylation
- CPA/DOX cytotoxicity in BT549 cells (BT549 cells [6]): selectively enhanced CPA/DOX regimen cytotoxicity in BT549 cells
